# PubChem BioAssay (NCI)
#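 Method: 48-hour compound exposure of cells in 96-well plates, five concentrations, linear interpolation of endpoints. At the TGI there is no net growth.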
# Experiments:
# Experiment in all cases: NCI-60 cell line screen, 48 h
# [1] = system: LOX IMVI melanoma
# [2] = system: RXF 393 renal
# [3] = system: RPMI-8226 leukemia
# [4] = system: SN12C renal
# [5] = system: BT-549 breast
# [6] = system: NCI-H522 lung
# [7] = system: HCT-116 colon
# [8] = system: SNB-75 CNS
# [9] = system: UACC-257 melanoma
# [10] = system: HCC-2998 colon
# [11] = system: OVCAR-5 ovarian
# [12] = system: KM12 colon
# [13] = system: CCRF-CEM leukemia
# [14] = system: K-562 leukemia
# [15] = system: SNB-19 CNS
# [16] = system: DU-145 prostate
# [17] = system: NCI/ADR-RES ovarian
# [18] = system: M14 melanoma
# [19] = system: SF-539 CNS
# [20] = system: SR leukemia
# [21] = system: NCI-H226 lung
# [22] = system: SF-268 CNS
# [23] = system: HT29 colon
# [24] = system: IGROV1 ovarian
# [25] = system: SK-OV-3 ovarian
# [26] = system: MCF7 breast
# [27] = system: MDA-MB-231 breast
# [28] = system: NCI-H460 lung
# [29] = system: SF-295 CNS
# [30] = system: MDA-MB-435
# [31] = system: UO-31 renal
# [32] = system: HOP-92 NSCLC
# [33] = system: SK-MEL-28 melanoma
# [34] = system: SK-MEL-2 melanoma
# [35] = system: HS 578T breast
# [36] = system: SK-MEL-5 melanoma
# [37] = system: MALME-3M melanoma
# [38] = system: OVCAR-8 ovarian
# [39] = system: T-47D breast
# [40] = system: MOLT-4 leukemia
# [41] = system: PC-3 prostate
# [42] = system: HCT-15 colon
# [43] = system: NCI-H23 lung
# [44] = system: 786-0 renal
# [45] = system: ACHN renal
# [46] = system: MDA-N
# [47] = system: UACC-62 melanoma
# [48] = system: EKVX NSCLC
# [49] = system: A498 renal
# [50] = system: CAKI-1 renal
# [51] = system: TK-10 renal
# [52] = system: OVCAR-3 ovarian
# [53] = system: OVCAR-4 ovarian
# [54] = system: SW-620 colon
# [55] = system: U251 CNS
# [56] = system: COLO 205 colon
# [57] = system: HOP-62 NSCLC
# [58] = system: HL-60(TB) leukemia
# [59] = system: A549 NSCLC
compound,measurement,setting,value
CCOC(=O)[C@@H]1[C@@H]2NC(=O)N[C@@]1(C)Oc1ccccc12,TGI,[1],> 100 µM
same,TGI,[2],> 100 µM
same,TGI,[3],> 100 µM
same,TGI,[4],> 100 µM
same,TGI,[5],> 100 µM
same,TGI,[6],> 100 µM
same,TGI,[7],> 100 µM
same,TGI,[8],> 100 µM
same,TGI,[9],> 100 µM
same,TGI,[10],> 100 µM
same,TGI,[11],> 100 µM
same,TGI,[12],> 100 µM
same,TGI,[13],> 100 µM
same,TGI,[14],> 100 µM
same,TGI,[15],> 100 µM
same,TGI,[16],> 100 µM
same,TGI,[17],> 100 µM
same,TGI,[18],> 100 µM
same,TGI,[19],> 100 µM
same,TGI,[20],> 100 µM
same,TGI,[21],> 100 µM
same,TGI,[22],> 100 µM
same,TGI,[23],> 100 µM
same,TGI,[24],> 100 µM
same,TGI,[25],> 100 µM
same,TGI,[26],> 100 µM
same,TGI,[27],> 100 µM
same,TGI,[28],> 100 µM
same,TGI,[29],> 100 µM
same,TGI,[30],> 100 µM
same,TGI,[31],> 100 µM
same,TGI,[32],> 100 µM
same,TGI,[33],> 100 µM
same,TGI,[34],> 100 µM
same,TGI,[35],> 100 µM
same,TGI,[36],> 100 µM
same,TGI,[37],> 100 µM
same,TGI,[38],> 100 µM
same,TGI,[39],> 100 µM
same,TGI,[40],> 100 µM
same,TGI,[41],> 100 µM
same,TGI,[42],> 100 µM
same,TGI,[43],> 100 µM
same,TGI,[44],> 100 µM
same,TGI,[45],> 100 µM
same,TGI,[46],> 100 µM
same,TGI,[47],> 100 µM
same,TGI,[48],> 100 µM
same,TGI,[49],> 100 µM
same,TGI,[50],> 100 µM
same,TGI,[51],> 100 µM
same,TGI,[52],> 100 µM
same,TGI,[53],> 100 µM
same,TGI,[54],> 100 µM
same,TGI,[55],> 100 µM
same,TGI,[56],> 100 µM
same,TGI,[57],> 100 µM
same,TGI,[58],> 100 µM
OC(CC(CC(O)(C(F)(F)F)C(F)(F)F)=NN=C(CC(O)(C(F)(F)F)C(F)(F)F)CC(O)(C(F)(F)F)C(F)(F)F)(C(F)(F)F)C(F)(F)F,TGI,[1],> 10 µM
same,TGI,[2],> 10 µM
same,TGI,[3],> 10 µM
same,TGI,[4],> 10 µM
same,TGI,[5],> 10 µM
same,TGI,[6],> 10 µM
same,TGI,[7],> 10 µM
same,TGI,[59],> 10 µM
same,TGI,[8],> 10 µM
same,TGI,[9],> 10 µM
same,TGI,[10],> 10 µM
same,TGI,[11],> 10 µM
same,TGI,[12],> 10 µM
same,TGI,[13],> 10 µM
same,TGI,[14],> 10 µM
same,TGI,[15],> 10 µM
same,TGI,[16],> 10 µM
same,TGI,[17],> 10 µM
same,TGI,[18],> 10 µM
same,TGI,[19],> 10 µM
same,TGI,[20],> 10 µM
same,TGI,[21],> 10 µM
same,TGI,[22],> 10 µM
same,TGI,[23],> 10 µM
same,TGI,[24],> 10 µM
same,TGI,[25],> 10 µM
same,TGI,[26],> 10 µM
same,TGI,[27],> 10 µM
same,TGI,[28],> 10 µM
same,TGI,[29],> 10 µM
same,TGI,[30],> 10 µM
same,TGI,[32],> 10 µM
same,TGI,[33],> 10 µM
same,TGI,[34],> 10 µM
same,TGI,[35],> 10 µM
same,TGI,[36],> 10 µM
same,TGI,[37],> 10 µM
same,TGI,[38],> 10 µM
same,TGI,[39],> 10 µM
same,TGI,[40],> 10 µM
same,TGI,[41],> 10 µM
same,TGI,[42],> 10 µM
same,TGI,[43],> 10 µM
same,TGI,[44],> 10 µM
same,TGI,[45],> 10 µM
same,TGI,[46],> 10 µM
same,TGI,[47],> 10 µM
same,TGI,[48],> 10 µM
same,TGI,[49],> 10 µM
same,TGI,[50],> 10 µM
same,TGI,[51],> 10 µM
same,TGI,[52],> 10 µM
same,TGI,[53],> 10 µM
same,TGI,[54],> 10 µM
same,TGI,[55],> 10 µM
same,TGI,[56],> 10 µM
same,TGI,[57],> 10 µM
same,TGI,[58],> 10 µM
